Measured values from US7790721B2, “Pyrroloquinoxalinone inhibitors of poly(ADP-ribose)polymerase” (Abbott Laboratories, priority 2006, dated 2010).
Read-outs that look alike come from different tables or passages of the source.

How the values were obtained:
PARP-1 = molecular target: T1, PARP-1 (Homo sapiens, UniProt P09874); assay: PARP1 assay (inhibition of PARP, [3H]-NAD+ / biotinylated histone H1, FlashPlate scintillation); type: biochemical
T1 construct: purchased Trevigen (Gaithersburg, Md.); host or cells: E. coli
T1 sequence (P09874 whole entry): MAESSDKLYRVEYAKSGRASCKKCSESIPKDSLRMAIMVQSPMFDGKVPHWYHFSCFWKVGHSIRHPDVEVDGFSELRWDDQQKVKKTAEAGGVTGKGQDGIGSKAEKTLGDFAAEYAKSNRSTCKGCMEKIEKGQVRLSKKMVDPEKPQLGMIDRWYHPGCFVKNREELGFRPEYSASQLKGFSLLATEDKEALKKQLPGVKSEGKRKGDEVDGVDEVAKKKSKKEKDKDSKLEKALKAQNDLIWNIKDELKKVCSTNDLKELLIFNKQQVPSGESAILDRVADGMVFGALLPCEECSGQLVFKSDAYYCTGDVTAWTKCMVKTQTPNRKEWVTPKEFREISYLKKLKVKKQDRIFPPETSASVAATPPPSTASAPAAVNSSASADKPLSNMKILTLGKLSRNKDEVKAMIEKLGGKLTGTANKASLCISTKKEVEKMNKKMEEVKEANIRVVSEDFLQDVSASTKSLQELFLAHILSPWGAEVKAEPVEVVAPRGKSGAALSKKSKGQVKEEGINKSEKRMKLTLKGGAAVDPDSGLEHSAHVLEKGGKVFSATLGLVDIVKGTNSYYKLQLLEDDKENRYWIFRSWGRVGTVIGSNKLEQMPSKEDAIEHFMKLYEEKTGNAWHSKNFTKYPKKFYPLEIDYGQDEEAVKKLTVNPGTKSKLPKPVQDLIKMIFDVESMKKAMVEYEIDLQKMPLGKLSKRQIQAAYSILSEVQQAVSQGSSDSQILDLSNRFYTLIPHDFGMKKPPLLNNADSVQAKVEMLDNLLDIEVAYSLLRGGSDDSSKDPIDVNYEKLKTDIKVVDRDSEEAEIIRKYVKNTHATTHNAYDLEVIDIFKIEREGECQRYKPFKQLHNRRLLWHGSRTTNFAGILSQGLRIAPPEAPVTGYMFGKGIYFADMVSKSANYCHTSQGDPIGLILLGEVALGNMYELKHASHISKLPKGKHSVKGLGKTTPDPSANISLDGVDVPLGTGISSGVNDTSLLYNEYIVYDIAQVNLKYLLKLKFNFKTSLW
Procedure: Nicotinamide[2,5′,8-3H]adenine dinucleotide and strepavidin SPA beads were purchased from Amersham Biosiences (Buckinghamshire, U.K.). […] NAD^+, histone, aminobenzamide, 3-amino benzamide and Calf Thymus DNA (dcDNA) were purchased from Sigma (St. Louis, Mo.). […] Biotinylated histone H1 was prepared by treating the protein with Sulfo-NHS-LC-Biotin from Pierce (Rockford, Ill.). The biotinylation reaction was conducted by slowly and intermittently adding 3 equivalents of 10 mM Sulfo-NHS-LC-Biotin to 100 μM Histone H1 in phosphate-buffered saline, pH 7.5, at 4° C. with gentle vortexing over 1 minute followed by subsequent 4° C. incubation for 1 hour. Streptavidin coated (FLASHPLATE PLUS®) microplates were purchased from Perkin Elmer (Waltham, Mass.).
PARP1 assay was conducted in PARP assay buffer containing 50 mM Tris pH 8.0, 1 mM DTT, 4 mM MgCl2. […] Auto reactions utilizing SPA bead-based detection were carried out in 100 μL volumes in white 96 well plates. Reactions were initiated by adding 50 μl of 2× NAD^+ substrate mixture to 50 μL of 2× enzyme mixture containing PARP and DNA. […] 170 μL of the stopped reaction mixtures were transferred to streptavidin FLASHPLATE PLUS®, incubated for 1 hour, and counted using a TOPCOUNT® microplate scintillation counter from Perkin Elmer (Waltham, Mass.).

PARP in C41 cells = molecular target: T2, PARP in C41 cells (Homo sapiens, UniProt P09874); assay: Cellular PARP assay (PAR formation after H2O2 DNA damage, anti-PAR immunofluorescence); type: cell-based; conditions: compound 30 minutes, then 1 mM H2O2 for 10 minutes, FITC signal normalized with DAPI, read-out: Cell, EC50
T2 construct: endogenous in cells; host or cells: C41 cells
T2 sequence (P09874 whole entry): as above
Procedure: C41 cells were treated with a compound of this invention for 30 minutes in 96 well plate. PARP was then activated by damaging DNA with 1 mM H2O2 for 10 minutes. The cells were then washed with ice-cold PBS once and fixed with pre-chilled methanol:acetone (7:3) at −20° C. for 10 minutes. After air-drying, the plates were rehydrated with PBS and blocked 5% non-fat dry milk in PBS-TWEEN20® (Sigma, St. Louis, Mo.) (0.05%) (blocking solution) for 30 minutes at room temperature. The cells were incubated with anti-PAR antibody 10H (1:50) in Blocking solution at 37° C. for 60 minutes followed by washing with PBS-TWEEN20® 5 times, and incubation with goat anti-mouse fluorescein 5(6)-isothiocyanate-coupled antibody (1:50) and 1 μg/ml 4′,6-diamidino-2-phenylindole (DAPI) in blocking solution at 37° C. for 60 minutes. […] The PARP activity (FITC signal) was normalized with cell numbers (DAPI).

[1] = recombinant human PARP, 1 nM enzyme, 1.5 μM [3H]-NAD+, inhibition curves at various substrate concentrations, read-out: PARP-1 (Ki)

| Ki (PARP-1) [µM] | Ki (PARP-1; [1]) [µM] | Structure (SMILES) | EC50 (PARP in C41 cells) [µM] |
| --- | --- | --- | --- |
| 0.006 | – | O=c1[nH]c2cc(CN3CCCC3)ccc2n2cccc12 [Example 7, 7-(pyrrolidin-1-ylmethyl)pyrrolo[1,2-a]quinoxalin-4(5H)-one] | 0.0054 |
| 0.032 | – | O=c1[nH]c2ccc(CNC3CC3)cc2n2cccc12 [Example 12, 8-((cyclopropylamino)methyl)pyrrolo[1,2-a]quinoxalin-4(5H)-one] | 0.013 |
| – | 0.044 | CC(C)NCc1ccc2[nH]c(=O)c3cccn3c2c1 [Example 13, 8-((isopropylamino)methyl)pyrrolo[1,2-a]quinoxalin-4(5H)-one] | 0.037 |
| 0.06 | – | CN(C)Cc1ccc2c(c1)NC(=O)C1CCCN21 (centres unmarked) [Example 44, 7-[(dimethylamino)methyl]-1,2,3,3a-tetrahydropyrrolo[1,2-a]quinoxalin-4(5H)-one] | 0.143 |
| – | > 9.5 | CN1CCN(Cc2ccc3c(c2)NC(=O)C2CCCN32)CC1 (centres unmarked) [Example 48, 7-[(4-methylpiperazin-1-yl)methyl]-1,2,3,3a-tetrahydropyrrolo[1,2-a]quinoxalin-4(5H)-one] | – |
| – | 1.35 | CN(Cc1ccccc1)Cc1ccc2c(c1)NC(=O)C1CCCN21 (centres unmarked) [Example 49, 7-{[benzyl(methyl)amino]methyl}-1,2,3,3a-tetrahydropyrrolo[1,2-a]quinoxalin-4(5H)-one] | – |
| – | 1.96 | CC(C)N(C)Cc1ccc2c(c1)NC(=O)C1CCCN21 (centres unmarked) [Example 50, 7-{[isopropyl(methyl)amino]methyl}-1,2,3,3a-tetrahydropyrrolo[1,2-a]quinoxalin-4(5H)-one] | – |
| – | 0.779 | CS(=O)(=O)N(Cc1ccc2[nH]c(=O)c3cccn3c2c1)C1CC1 [Example 51, N-cyclopropyl-N-[(4-oxo4,5-dihydropyrrolo[1,2-a]quinoxalin-8-yl)methyl]methanesulfonamide] | – |
| – | 0.698 | O=C1CCCN1Cc1ccc2c(c1)[nH]c(=O)c1cccn12 [Example 52, 7-[(2-oxopyrrolidin-1-yl)methyl]pyrrolo[1,2-a]quinoxalin-4(5H)-one] | – |
| – | 0.917 | CCS(=O)(=O)N(Cc1ccc2[nH]c(=O)c3cccn3c2c1)C1CCC1 [Example 53, N-cyclobutyl-N-[(4-oxo-4,5-dihydropyrrolo[1,2-a]quinoxalin-8-yl)methyl]ethanesulfonamide] | – |
| – | 0.635 | CC(C)N(Cc1ccc2[nH]c(=O)c3cccn3c2c1)S(=O)(=O)c1ccccc1 [Example 54, N-isopropyl-N-[(4-oxo-4,5-dihydropyrrolo[1,2-a]quinoxalin-8-yl)methyl]benzenesulfonamide] | – |
| – | 1.5 | CC(=O)N(Cc1ccc2c(c1)[nH]c(=O)c1cccn12)C1CCC1 [Example 55, N-cyclobutyl-N-[(4-oxo-4,5-dihydropyrrolo[1,2-a]quinoxalin-7-yl)methyl]acetamide] | – |
| – | 0.909 | CS(=O)(=O)N(Cc1ccc2c(c1)[nH]c(=O)c1cccn12)C1CC1 [Example 56, N-cyclopropyl-N-[(4-oxo-4,5-dihydropyrrolo[1,2-a]quinoxalin-7-yl)methyl]methanesulfonamide] | – |
| – | 1.14 | O=C1NCc2cc(CN3CCCCC3)ccc2-n2cccc21 [Example 57, 8-(piperidin-1-ylmethyl)-5,6-dihydro-4H-pyrrolo[1,2-a][1,4]benzodiazepin4-one] | – |
| – | 1.44 | O=C1NCc2cc(CNC3CCCCC3)ccc2-n2cccc21 [Example 58, 8-[(cyclohexylamino)methyl]-5,6-dihydro-4H-pyrrolo[1,2-a][1,4]benzodiazepin4-one] | – |
| – | 0.534 | COC(=O)CNCc1ccc2c(c1)[nH]c(=O)c1cccn12 [Example 59, Methyl N-[(4-oxo4,5-dihydropyrrolo[1,2-a]quinoxalin-7-yl)methyl]glycinate] | – |
| – | 0.318 | O=C(O)CNCc1ccc2c(c1)[nH]c(=O)c1cccn12 [Example 60, N-[(4-oxo-4,5-dihydropyrrolo[1,2-a]quinoxalin-7-yl)methyl]glycine] | – |
| – | 0.211 | O=C(NCCCN1CCOCC1)c1ccc2c(c1)[nH]c(=O)c1cccn12 [Example 63, N-(3-morpholin-4-ylpropyl)-4-oxo-4,5-dihydropyrrolo[1,2-a]quinoxaline-7-carboxamide] | – |
| – | 0.369 | O=C(NCC(=O)N1CCOCC1)c1ccc2c(c1)[nH]c(=O)c1cccn12 [Example 64, N-(2-morpholino-2-oxoethyl)-4-oxo-4,5-dihydropyrrolo[1,2-a]quinoxaline-7-carboxamide] | – |
| – | 0.427 | CN(C)CCNCc1ccc2c(c1)[nH]c(=O)c1cccn12 [Example 65, 7-({[2-(dimethylamino)ethyl]amino}methyl)pyrrolo[1,2-a]quinoxalin-4(5H)-one] | – |

| Ki (PARP-1) [µM] | Ki (PARP-1; [1]) [µM] | Structure (SMILES) | EC50 (PARP in C41 cells) [µM] |
| --- | --- | --- | --- |
| – | 0.023 | CN1CCN(CCCNC(=O)c2ccc3c(c2)[nH]c(=O)c2cccn23)CC1 [Example 66, N-[3-(4-methylpiperazin-1-yl)propyl]-4-oxo4,5-dihydropyrrolo[1,2-a]quinoxaline-7-carboxamide] | 0.032 |
| – | 1.63 | CN(C)CCNC(=O)c1ccc2c(c1)[nH]c(=O)c1cccn12 [Example 68, N-[2-(dimethylamino)ethyl]-4-oxo-4,5-dihydropyrrolo[1,2-a]quinoxaline-7-carboxamide] | – |
| – | 0.129 | O=c1[nH]c2cc(CNCCCN3CCCCC3)ccc2n2cccc12 [Example 69, 7-{[(3-piperidin-1-ylpropyl)amino]methyl}pyrrolo[1,2-a]quinoxalin-4(5H)-one] | – |
| – | 0.139 | O=C(NCCCN1CCCCC1)c1ccc2c(c1)[nH]c(=O)c1cccn12 [Example 70, 4-oxo-N-(3-piperidin-1-ylpropyl)-4,5-dihydropyrrolo[1,2-a]quinoxaline-7-carboxamide] | – |
| – | 0.182 | O=c1[nH]c2cc(CNCCN3CCCCC3)ccc2n2cccc12 [Example 71, 7-{[(2-piperidin-1-ylethyl)amino]methyl}pyrrolo[1,2-a]quinoxalin-4(5H)-one] | – |
| – | 0.163 | CN(C)C1CCC(NCc2ccc3c(c2)[nH]c(=O)c2cccn23)CC1 (centres unmarked) [Example 72, 7-({[4-(dimethylamino)cyclohexyl]amino}methyl)pyrrolo[1,2-a]quinoxalin-4(5H)-one] | – |
| – | 0.874 | O=C(NCC(=O)N1CCCC1)c1ccc2c(c1)[nH]c(=O)c1cccn12 [Example 73, 4-oxo-N-(2-oxo-2-(pyrrolidin-1-yl)ethyl)-4,5-dihydropyrrolo[1,2-a]quinoxaline-7-carboxamide] | – |
| – | 0.776 | CN(C)C1CCC(NC(=O)c2ccc3c(c2)[nH]c(=O)c2cccn23)CC1 (centres unmarked) [Example 74, N-[4-(dimethylamino)cyclohexyl]-4-oxo4,5-dihydropyrrolo[1,2-a]quinoxaline-7-carboxamide] | – |
| – | 1.64 | O=C(Nc1cccc(S(=O)(=O)N2CCCCC2)c1)c1ccc2c(c1)[nH]c(=O)c1cccn12 [Example 75, 4-oxo-N-[3-(piperidin-1-ylsulfonyl)phenyl]4,5-dihydropyrrolo[1,2-a]quinoxaline-7-carboxamide] | – |
| – | 0.149 | O=C(CNCc1ccc2c(c1)[nH]c(=O)c1cccn12)N1CCCC1 [Example 76, 7-((2-oxo-2-(pyrrolidin-1-yl)ethylamino)methyl)pyrrolo[1,2-a]quinoxalin-4(5H)-one] | – |
| – | 0.086 | O=C(NCCN1CCSCC1)c1ccc2c(c1)[nH]c(=O)c1cccn12 [Example 78, 4-oxo-N-(2-thiomorpholin-4-ylethyl)-4,5-dihydropyrrolo[1,2-a]quinoxaline-7-carboxamide] | – |
| – | 0.615 | CN(C)C(=O)c1ccc2c(c1)[nH]c(=O)c1cccn12 [Example 79, N,N-dimethyl-4-oxo-4,5-dihydropyrrolo[1,2-a]quinoxaline-7-carboxamide] | – |
| – | 0.113 | CCN1CCCC(NC(=O)c2ccc3c(c2)[nH]c(=O)c2cccn23)C1 (centres unmarked) [Example 80, N-(1-ethylpiperidin-3-yl)4-oxo-4,5-dihydropyrrolo[1,2-a]quinoxaline-7carboxamide] | – |
| – | 0.094 | O=C(NCCCCc1ccccc1)c1ccc2c(c1)[nH]c(=O)c1cccn12 [Example 81, 4-oxo-N-(4-phenylbutyl)-4,5-dihydropyrrolo[1,2-a]quinoxaline-7-carboxamide] | – |
| – | 0.058 | O=C(Nc1ccc(N2CCN(Cc3ccccc3)CC2)cc1)c1ccc2c(c1)[nH]c(=O)c1cccn12 [Example 83, N-[4-(4-benzylpiperazin-1-yl)phenyl]-4-oxo4,5-dihydropyrrolo[1,2-a]quinoxaline-7-carboxamide] | – |
| – | 0.098 | O=C(Nc1nccs1)c1ccc2c(c1)[nH]c(=O)c1cccn12 [Example 84, 4-oxo-N-1,3-thiazol-2-yl-4,5-dihydropyrrolo[1,2-a]quinoxaline-7-carboxamide] | – |
| – | 0.016 | O=C(c1ccc2c(c1)[nH]c(=O)c1cccn12)N1CCCCC1 [Example 85, 7-(piperidin-1-ylcarbonyl)pyrrolo[1,2-a]quinoxalin-4(5H)-one] | 0.023 |
| – | 0.035 | NC1CCN(Cc2ccc3c(c2)[nH]c(=O)c2cccn23)CC1 [Example 86, 7-[(4-aminopiperidin-1-yl)methyl]pyrrolo[1,2-a]quinoxalin-4(5H)-one] | 0.204 |
| – | 0.077 | NC1CCN(C(=O)c2ccc3c(c2)[nH]c(=O)c2cccn23)CC1 [Example 87, 7-[(4-aminopiperidin-1-yl)carbonyl]pyrrolo[1,2-a]quinoxalin-4(5H)-one] | – |
| – | 8.69 | O=C(c1ccc2c(c1)[nH]c(=O)c1cccn12)N1CCCNCC1 [Example 88, 7-(1,4-diazepan-1-ylcarbonyl)pyrrolo[1,2-a]quinoxalin-4(5H)-one] | – |
